In patent US20100204131A1, “USE OF A PEPTIDE AS A THERAPEUTIC AGENT” (priority 2007, published 2010):
No end group written: not given here.

Assays:
HIV-1IIIB = assay: HIV-1 antiviral assay in CEM-SS cells; conditions: CEM-SS cells infected with HIV-1IIIB
HCMV strain AD169 = assay: HCMV plaque formation assay in MRC-5 cells; conditions: for inhibition of HCMV plaque formation as compared to the virus control: 10 micrograms per ml, MRC-5 cells, 7-10 days
[1] = system: Primary Human endothelial cells (HUVEC); assay: Endothelial cell migration assay; conditions: 10 micrograms per ml, 22 hours, transwell
Protocol: Primary Human endothelial cells (HUVEC) were seeded in insert chambers with 3 micrometer pore size of multi-transwell plate for 6 hours at 37° C. in Endothelial Cell Basal Medium (EBM) supplemented with 0.1% bovine serum albumin. Thereafter, designated concentration of testing peptides -10 micrograms per ml—was added in duplicate wells. The endothelia were allowed to migrate for 22 hours at 37° C., then, migrated cells were fixed and stained with Hoechst 33342 dye. Images of 3 fields per insert were taken and the number of migrated cells per field were quantified using the ImageProPlus software. Data were analyzed for the average number of the migrated cells and standard deviation of six data points for each treatment condition. […] Statistic p values were computed using the Student's t-test.

HUVEC = assay: Endothelial tube formation assay; conditions: 10 micrograms per ml, 20 hours, average tubule length
Protocol: The endothelial tube formation assay is based on the ability of endothelial cells to form three-dimensional capillary-like tubular structures when cultured on a gel of basement membrane extract. […] Pre-labeled HUVEC with Calcein AM were seeded in a 96-well culture plate coated with extracellular metrix (Chemicon international Cat. ECM625) and treated with test peptides—10 micrograms per ml—in full growth medium. Positive control was vehicle only. The endothelial cells were allowed to form tubes foe 20 hours and were then examined under an inverted fluorescent microscope. Duplicate wells for each treatment were photographed and quantitatevily analyzed for an average tubule length using image analysis software ImageProPlus. Raw data were expressed as average tubule lengths in pixels ±standard deviation. Statistic p values were computed using the Student's t-test.

IL-5 spleen cells = assay: Th1/Th2 cytokine profiling assay: IL-5; conditions: 10 micrograms per ml; spleen cells of Ovalbumin-immunized Balb/c mice restimulated with Ovalbumin 10 micrograms/ml; 72 hours; supernatant
From the text: (§1) The Balb/c mice (originated in 1923, it is a popular strain and is used in many different research disciplines. Also classified as an inbred from the production of 20 or more successive brother-sister matings, the Balb/c mouse is albino and small in size) were immunized on Days 1, 15, and 29 with Ovalbumin (Ovalbumin is the main protein found in egg white, commonly used to stimulate an immunological reaction in test animals) in PBS (5 micrograms/injection). On day 50, spleens of the mice were harvested (3 weeks after last boost with Ovalbumin). […] Thereafter, additional Ovalbumin was added to the cells at 10 micrograms/ml for in vitro restimulation of the cells. 72 hours later, cell supernatants were harvested and assayed using the Becton Dickinson Mouse Th1/Th2 Cytokine CBA Kit.

IL-2 spleen cells = assay: Th1/Th2 cytokine profiling assay: IL-2; conditions: 10 micrograms per ml; spleen cells of Ovalbumin-immunized Balb/c mice restimulated with Ovalbumin 10 micrograms/ml; 72 hours; supernatant
From the text: as §1

TNF-a spleen cells = assay: Th1/Th2 cytokine profiling assay: TNF-a; conditions: 10 micrograms per ml; spleen cells of Ovalbumin-immunized Balb/c mice restimulated with Ovalbumin 10 micrograms/ml; 72 hours; supernatant
From the text: (§2) The Balb/c mice (originated in 1923, it is a popular strain and is used in many different research disciplines. Also classified as an inbred from the production of 20 or more successive brother-sister matings, the Balb/c mouse is albino and small in size) were immunized on Days 1, 15, and 29 with Ovalbumin (Ovalbumin is the main protein found in egg white, commonly used to stimulate an immunological reaction in test animals) in PBS (5 micrograms/injection). On day 50, spleens of the mice were harvested (3 weeks after last boost with Ovalbumin). […] Thereafter, additional Ovalbumin was added to the cells at 10 micrograms/ml for in vitro restimulation of the cells. 72 hours later, cell supernatants were harvested and assayed using the Becton Dickinson Mouse Th1/Th2 Cytokine CBA Kit. This kit can be used to measure Interleukin-2 (IL-2), Interleukin-4 (IL-4), Interleukin-5 (IL-5), Interferon-γ (IFN-γ), and Tumor Necrosis Factor-α (TNF-α) protein levels in a single sample.

[2] = system: hepatitis B virus (HBV) ayw strain; assay: HBV experimental assay system (HepG2-2.2.15, TaqMan PCR); format: cell-based; conditions: 10 micrograms per ml; HepG2-2.2.15 cells; six days; HBV DNA by TaqMan PCR
From the text: HepG2-2.2.15 is a stable cell line containing the hepatitis B virus (HBV) ayw strain genome (ATCC Cat. No. CRL-11997). Antiviral compounds blocking any late step of viral replication such as transcription, translation, pregenome encapsidation, reverse transcription, particle assembly and release can be identified and characterized using this cell line. In this assay, an active compound will reduce the production of secreted HBV from cells, measured by utilizing real time quantitative PCR (TaqMan) assay to directly and accurately measure HBV DNA copies.
HepG2-2.2.15 cells were plated in 96-well microtiter plates. After 16-24 hours the confluent monolayer of HepG2-2.2.15 cells was washed and the medium was replaced with complete medium containing test peptides—10 micrograms per ml—in duplicate. […] Six days following the initial administration of the peptides, the cell culture supernatants was collected, treated with pronase and DNAse and then used in a real-time quantitative TaqMan PCR assay. The PCR-amplified HBV DNA was detected in real-time by monitoring increases in fluorescence signals that result from the exonucleolytic degradation of a quenched fluorescence probe molecule that hybridizes to the amplified HBV DNA. […] Antiviral activity was calculated from the reduction in HBV DNA levels (% virus control). […]

IFNγ spleen cells = assay: Th1/Th2 cytokine profiling assay: IFNγ; conditions: 10 micrograms per ml; spleen cells of Ovalbumin-immunized Balb/c mice restimulated with Ovalbumin 10 micrograms/ml; 72 hours; supernatant
From the text: as §2

IL-4 spleen cells = assay: Th1/Th2 cytokine profiling assay: IL-4; conditions: 10 micrograms per ml; spleen cells of Ovalbumin-immunized Balb/c mice restimulated with Ovalbumin 10 micrograms/ml; 72 hours; supernatant
From the text: as §1

Molecule	antiviral activity of positive control compounds (HIV-1IIIB)	antiviral activity of positive control compound (HCMV strain AD169; positive control, HCMV in MRC-5 cells)	inhibition of HCMV plaque formation as compared to the virus control (HCMV strain AD169)	inhibition of the migration of human endothelial cells [1]	inhibition of the tube formation of endothelial cells (HUVEC) [%]	IL-5 spleen cells; TH2 response (% of control) (IL-5 spleen cells)	IL-2 spleen cells (% of control) (IL-2 spleen cells)	TNF-a spleen cells; TH1 response (% of control) (TNF-a spleen cells)	inhibition of HBV replication on tested liver cells [2]	IFNγ spleen cells; TH1 response (% of control) (IFNγ spleen cells)	IL-4 spleen cells; TH2 response (% of control) (IL-4 spleen cells)
Cc1cn([C@H]2C[C@H](N=[N+]=[N-])[C@@H](CO)O2)c(=O)[nH]c1=O [AZT]	expected levels of antiviral activity										
Nc1nc(O)c2ncn(COC(CO)CO)c2n1 [Ganciclovir, reference compound]		expected levels of antiviral activity									
CC(C)(C)NC(=O)[C@@H]1CN(Cc2cccnc2)CCN1C[C@@H](O)C[C@@H](Cc1ccccc1)C(=O)N[C@H]1c2ccccc2C[C@H]1O [indinavir]	expected levels of antiviral activity										
Ala-Ser-Gln-Phe-Glu-Thr-Ser-OH (ASQFETS-OH) [peptide 2]			did not inhibit	28%	27	57.6 % of control	72.5 % of control	110.7 % of control	no effect	94.7 % of control	0.0 % of control
Ser-Tyr-Ser-Met-Glu-His-Phe-Arg-Trp-Gly-Lys-Pro-Val-Gly-Lys-Lys-Arg-Arg-Pro-Val-Lys-Val-Tyr-Pro-OH (SYSMEHFRWGKPVGKKRRPVKVYP-OH) [peptide 1]			did not inhibit	did not inhibit	25	82.6 % of control	149.2 % of control	97.0 % of control	no effect	103.7 % of control	132.1 % of control
